According to patent publication US20150164895A1, “DETERMINING SENSITIVITY OF CELLS TO B-RAF INHIBITOR TREATMENT BY DETECTING KRAS MUTATION AND RTK EXPRESSION LEVELS” (GENENTECH, INC., priority 2009, published 2015):
Several values for one entry are separate records, joined by “and”; a condition that tells them apart may be missing. Equal entries are not always repeated.

Key:
[1] = tested on: LXFA 983/9N4 (Lung, adeno); test: Oncotest Exp H331: growth of LXFA 983 lung tumor xenograft after dosing with B-RAF inhibitor; assay type: in vivo, mice; details: H331-2, 100 mg/kg/day, Days 0-21; for Absolute body weight / Relative body weight: individual animals; for Absolute body weight / Relative body weight / Absolute tumor volume: (a*b*b)/2 / Relative tumor volume: listed as G-026887; for Absolute tumor volume: (a*b*b)/2 / Relative tumor volume: individual tumors; for Absolute body weight, Median / Relative body weight, Median / Absolute tumor volume: (a*b*b)/2, Median / Relative tumor volume, Median: group median; for Absolute body weight, Median / Relative body weight, Median: n 10; for Absolute tumor volume: (a*b*b)/2, Median / Relative tumor volume, Median: n 15
Source text: FIGS. 10-18 depict growth in lung tumor xenografts after dosing with GDC-0879.
The data are shown below, and in FIGS. 10-14 for Experiment H331 and FIGS. 15-18 for Experiment H327.

[2] = molecular target: B-Raf^V600E (Homo sapiens, UniProt P15056, V600E); details: physiological [ATP]
[3] = tested on: pERK in BRAF V600E cells expressing EGFR; test: pERK MSD assay, basal and EGF-stimulated; assay type: cell-based; details: serum starved, -EGF or +EGF
Protocol: (A) Table of genotype and EGFR levels among lines tested. (B) Measurement of basal and stimulated pERK levels: cells were treated with […] compound in serum free media for 1 hour. For stimulation 20 ng/ml EGF was added for 5 min before cells were lysed. Lysates were transferred to an MSD plate where phospho- and total ERK levels were measured. (C) pERK IC50 data are plotted for the two Raf inhibitors (CHR-265, 1-methyl-5-[[2-[5-(trifluoromethyl)-1H-imidazol-2-yl]-4-pyridinyl]oxy]-N-[4-(trifluoromethyl)phenyl]-1H-Benzimidazol-2-amine and GDC-0879) under basal and EGF-stimulated conditions.
FIG. 29 summarizes certain RAF inhibitor (GDC-0879, PLX-4720 and “Raf inh a” which is 2,6-difluoro-N-(3-methoxy-1H-pyrazolo[3,4-b]pyridin-5-yl)-3-(propylsulfonamido)benzamide) potencies for blocking cellular pERK induction in response to EGF stimulation.

[4] = tested on: patient-derived melanoma and non-small cell lung cancer tumor models; test: Primary human tumor xenograft models, time to tumor doubling; assay type: in vivo, mice; details: 100 mg/kg daily
Protocol: FIG. 8A depicts the duration and extent of BRAF pathway inhibition determines B-Raf inhibitor, GDC-0879 efficacy in primary human tumor xenograft models. A Kaplan-Meier plot showing time to tumor doubling for patient-derived melanoma and non-small cell lung cancer tumor models treated daily with 100 mg/kg GDC-0879 or vehicle. Genotypes for BRAF, N-ras and K-ras are indicated.
The Ras GTPase family controls numerous downstream signaling cascades in response to signals that regulate cellular processes including proliferation and survival. While Ras is one of the most prevalent targets for gain-of-function mutations in human tumors, questions remain regarding how the Ras effector pathway functions in mutant K-ras-driven tumorigenesis. Since an important function of K-ras involves B-Raf activation within the canonical MAPK signaling pathway, we initiated a study to determine B-Raf's role in the context of mutant K-ras-driven tumor promotion and maintenance. […] See, FIG. 8A, showing time to tumor doubling.

B-Raf^V600E, sequence (P15056 whole entry V600E): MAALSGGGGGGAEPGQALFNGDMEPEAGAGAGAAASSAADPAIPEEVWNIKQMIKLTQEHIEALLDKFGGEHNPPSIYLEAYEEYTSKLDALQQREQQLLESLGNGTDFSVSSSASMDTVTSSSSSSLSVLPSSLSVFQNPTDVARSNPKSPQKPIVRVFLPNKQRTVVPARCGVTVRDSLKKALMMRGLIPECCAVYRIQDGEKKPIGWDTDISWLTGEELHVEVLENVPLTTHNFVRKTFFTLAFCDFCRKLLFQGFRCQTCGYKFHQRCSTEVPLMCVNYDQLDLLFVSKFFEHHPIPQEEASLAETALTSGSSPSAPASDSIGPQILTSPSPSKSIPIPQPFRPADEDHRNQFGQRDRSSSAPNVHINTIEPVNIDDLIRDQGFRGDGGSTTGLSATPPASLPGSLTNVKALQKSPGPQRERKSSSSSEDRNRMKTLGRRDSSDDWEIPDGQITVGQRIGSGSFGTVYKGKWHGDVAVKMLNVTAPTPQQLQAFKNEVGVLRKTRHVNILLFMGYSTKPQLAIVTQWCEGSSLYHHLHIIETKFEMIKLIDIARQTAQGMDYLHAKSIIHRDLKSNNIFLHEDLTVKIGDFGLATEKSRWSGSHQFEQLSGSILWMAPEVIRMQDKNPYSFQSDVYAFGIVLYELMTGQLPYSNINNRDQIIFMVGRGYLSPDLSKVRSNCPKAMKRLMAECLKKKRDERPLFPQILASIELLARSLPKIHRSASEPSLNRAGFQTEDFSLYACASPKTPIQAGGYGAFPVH

SMILES: OCCn1cc(-c2ccc3c(c2)CC/C3=N\O)c(-c2ccncc2)n1 [GDC-0879, 2-{4-[(1E)-1-(hydroxyimino)-2,3-dihydro-1H-inden-5-yl]-3-(pyridine-4-yl)-1H-pyrazol-1-yl}ethan-1-ol]
- Absolute body weight ([1]; study day 10): 26.7 g (2×) and 26.9 g and 25.6 g and 27.6 g and 25.3 g and 29.1 g (2×) and 28.6 g (2×)
- Relative body weight ([1]; study day 10): 91.7% and 98.2% and 100.0% and 97.8% and 98.1% and 93.9% and 102.0% and 93.3% and 96.4% and 103.6%
- Absolute tumor volume: (a*b*b)/2 ([1]; study day 10): 431.7 mm3 and 379.3 mm3 and 329.5 mm3 and 539.0 mm3 and 964.8 mm3 and 404.0 mm3 and 612.5 mm3 and 525.4 mm3 and 528.2 mm3 and 302.6 mm3 and 570.0 mm3 and 348.5 mm3 and 372.6 mm3 and 406.6 mm3
- Relative tumor volume ([1]; study day 10): 269.9% and 368.3% and 313.3% and 350.2% and 392.5% and 406.6% and 646.4% and 763.8% and 427.1% and 473.3% and 406.9% and 259.8% and 630.2% and 247.8%
- Absolute body weight, Median ([1]; study day 14): 28.6 g
- Relative body weight, Median ([1]; study day 14): 99.5%
- Absolute tumor volume: (a*b*b)/2, Median ([1]; study day 14): 578.8 mm3
- Relative tumor volume, Median ([1]; study day 14): 580.3%
- Absolute body weight ([1]; study day 14): 26.8 g and 27.2 g and 28.2 g and 25.5 g and 29.1 g and 25.8 g and 29.4 g and 30.2 g and 28.9 g and 30.3 g
- Relative body weight ([1]; study day 14): 97.1% and 98.5% and 101.1% and 103.3% and 97.7% and 99.0% and 104.0% and 94.2% and 100.0% and 104.7%
- Absolute tumor volume: (a*b*b)/2 ([1]; study day 14): 578.8 mm3 and 655.5 mm3 and 545.9 mm3 and 574.3 mm3 and 1411.2 mm3 and 581.0 mm3 and 1115.4 mm3 and 951.3 mm3 and 891.1 mm3 and 318.2 mm3 and 597.5 mm3 and 390.2 mm3 and 510.0 mm3 and 499.4 mm3
- Relative tumor volume ([1]; study day 14): 620.2% and 493.8% and 541.3% and 580.3% and 418.3% and 594.7% and 929.7% and 1390.9% and 773.4% and 798.5% and 427.9% and 272.4% and 705.6% and 339.1%
- Absolute body weight, Median ([1]; study day 17): 28.8 g
- Relative body weight, Median ([1]; study day 17): 100.8%
- Absolute tumor volume: (a*b*b)/2, Median ([1]; study day 17): 742.6 mm3
- Relative tumor volume, Median ([1]; study day 17): 719.8%
- Absolute body weight ([1]; study day 17): 27.2 g and 27.6 g and 28.5 g and 25.8 g (2×) and 29.5 g (2×) and 30.6 g and 29.0 g and 30.7 g
- Relative body weight ([1]; study day 17): 98.4% and 100.0% and 102.6% and 104.4% and 98.9% and 100.3% and 104.0% and 94.6% and 101.3% and 105.1%
- Absolute tumor volume: (a*b*b)/2 ([1]; study day 17): 705.7 mm3 and 742.6 mm3 and 701.1 mm3 and 841.5 mm3 and 1708.0 mm3 and 642.0 mm3 and 1229.4 mm3 and 1327.1 mm3 and 1247.1 mm3 and 426.5 mm3 and 778.8 mm3 and 520.5 mm3 and 606.4 mm3 and 758.4 mm3
- Relative tumor volume ([1]; study day 17): 860.5% and 602.1% and 613.3% and 745.2% and 612.8% and 719.8% and 1027.1% and 1533.1% and 1078.9% and 1117.5% and 573.5% and 355.0% and 941.4% and 403.2%
- Absolute body weight, Median ([1]; study day 21): 29.0 g
- Relative body weight, Median ([1]; study day 21): 103.5%
- Absolute tumor volume: (a*b*b)/2, Median ([1]; study day 21): 958.8 mm3
- Relative tumor volume, Median ([1]; study day 21): 826.5%
- Absolute body weight ([1]; study day 21): 28.6 g and 27.5 g and 29.3 g and 26.9 g and 31.1 g and 26.6 g and 30.6 g and 31.0 g and 28.7 g and 31.6 g
- Relative body weight ([1]; study day 21): 101.3% and 105.1% and 102.2% and 107.3% (2×) and 103.1% and 105.8% and 98.1% and 102.6% and 104.0%
- Absolute tumor volume: (a*b*b)/2 ([1]; study day 21): 893.3 mm3 and 1083.3 mm3 and 715.5 mm3 and 1030.4 mm3 and 1961.1 mm3 and 772.8 mm3 and 1472.3 mm3 and 1618.7 mm3 and 1461.9 mm3 and 550.0 mm3 and 958.8 mm3 and 609.2 mm3 and 712.9 mm3 and 874.7 mm3
- Relative tumor volume ([1]; study day 21): 1511.3% and 762.1% and 894.7% and 760.5% and 750.4% and 826.5% and 1236.5% and 1836.0% and 1316.0% and 1309.9% and 739.6% and 437.1% and 1101.7% and 474.0%
- potency in biochemical enzyme assay [2]: maintains effective potency
- blocking wildtype RAF signaling / selectivity (pERK induction in response to EGF) [3]: can more efficiently block wildtype RAF signaling
- time to tumor doubling / tumor growth ([4]; K-ras-mutant non-small cell lung tumors such as LXFA 1041 and LXFA 983): significantly accelerated growth
- time to tumor doubling / tumor progression ([4]; MEXF 989, MEXF 276, and MEXF 355 tumors): statistically significant (P<0.05) delay in tumor progression
